Patent US10775394B2, “Immunoassay for phenethylamines of the 2C and DO sub-families” (Randox Laboratories Limited, priority 2013, dated 2020)
Structures can show the parent of a compound that is named as a salt.

Key:
[1] = system: CEDIA amphetamine/ecstasy immunoassay; conditions: CEDIA assay; tested at 5,000 ng/ml; Petrie et al 2013; cited from earlier work
[2] = system: AxSYM amphetamine/methamphetamine II assay; conditions: even when tested at 5,000 ng/mL, Petrie et al 2013; cited from earlier work
[3] = system: EMIT II Plus amphetamines assay; conditions: tested at 5,000 ng/ml, Petrie et al 2013; cited from earlier work
[4] = system: DO antibody 1 (IgG fraction of antiserum raised to DOB-BSA); assay: Competitive microtitre plate ELISA, DO antibody 1 (antiserum raised to DOB-BSA); format: binding; conditions: for % Cross-Reactivity: DO antibody 1, relative to DOB = 100%, calibration curves 0-40 ng/ml
Description: The appropriate antibody coating dilution was determined using standard ELISA checkerboard techniques. The plate was incubated for 2 hours at 37° C., washed 4 times over 10 minutes with Tris buffered saline containing Tween 20 (TBST) and tapped dry. […] The appropriate dilution of conjugate was also determined using standard ELISA checkerboard techniques. The plate was incubated at 25° C. for 1 hour. Excess unbound conjugate was removed by washing 6 times over a 10-15 minute period with TBST and tapped dry. 125 μl of tetramethylbenzidine (TMB) substrate solution was added to each well of the plate that was then incubated for 20 minutes in the dark at room temperature. The reaction was terminated by addition of 125 μl 0.2 M H2SO4 to each well. The absorbance was measured at 450 nm using a microtitre plate reader.

[5] = system: 2C antibody (IgG fraction of antiserum raised to 2C-B-BSA); assay: Competitive microtitre plate ELISA, 2C antibody (antiserum raised to 2C-B-BSA); format: binding; conditions: for % Cross-Reactivity / IC50 (standard concentration which produces 50% inhibition of maximal signal): 2C antibody; for % Cross-Reactivity: relative to 2C-B = 100%, calibration curves 0-80 ng/ml; for IC50 (standard concentration which produces 50% inhibition of maximal signal): 2C-B standard, competitive ELISA
Description: The wells of an enhanced binding 96 well polystyrene microtitre plate were coated with IgG fraction of antiserum raised to 2C-B-BSA, diluted in 10 mM Tris, pH8.5 (125 μl/well). The appropriate antibody coating dilution was determined using standard ELISA checkerboard techniques. The plate was incubated overnight at 4° C., washed 4 times over 10 minutes with Tris buffered saline containing Tween 20 (TBST) and tapped dry. Standard solutions of 2CB were prepared in TBST at 0, 1.25, 2.5, 5, 10, 20, 40 & 80 ng/ml, and 50 μl of each was added to the appropriate wells. 75 μl of conjugate (Example 11) diluted in Tris buffer (pH 7.2) containing EDTA, D-mannitol, sucrose, thimerosal and BSA, was added to each of the wells. The appropriate dilution of conjugate was also determined using standard ELISA checkerboard techniques. The plate was incubated at 25° C. for 1 hour. Excess unbound conjugate was removed by washing 6 times over a 10-15 minute period with TBST and tapped dry. 125 μl of tetramethylbenzidine (TMB) substrate solution was added to each well of the plate that was then incubated for 20 minutes in the dark at room temperature. The reaction was terminated by addition of 125 μl 0.2 M H2SO4 to each well. The absorbance was measured at 450 nm using a microtitre plate reader. In order to determine the specificity of the competitive ELISAs, standard solutions of a range of structurally similar compounds were prepared in TBST. Using calibration curves generated from these compounds (0-80 ng/ml) percentage cross-reactivity was determined.

[6] = system: DO antibody 2 (IgG fraction of antiserum raised to DOB-BSA); assay: Competitive microtitre plate ELISA, DO antibody 2 (antiserum raised to DOB-BSA); format: binding; conditions: for % Cross reactivity: DO antibody 2, relative to DOB = 100
Description: The wells of an enhanced binding 96 well polystyrene microtitre plate were coated with IgG fraction of antiserum raised to DOB-BSA, diluted in 10 mM Tris, pH8.5 (125 μl/well). The appropriate antibody coating dilution was determined using standard ELISA checkerboard techniques. The plate was incubated for 2 hours at 37° C., washed 4 times over 10 minutes with Tris buffered saline containing Tween 20 (TBST) and tapped dry. Standard solutions of DOB were prepared in TBST at 0, 0.625, 1.25, 2.5, 5, 10, 20 & 40 ng/ml, and 50 μl of each was added to the appropriate wells. 75 μl of conjugate (Example 22) diluted in Tris buffer (pH 7.2) containing EDTA, D-mannitol, sucrose, thimerosal and BSA, was added to each of the wells. The appropriate dilution of conjugate was also determined using standard ELISA checkerboard techniques. The plate was incubated at 25° C. for 1 hour. Excess unbound conjugate was removed by washing 6 times over a 10-15 minute period with TBST and tapped dry. 125 μl of tetramethylbenzidine (TMB) substrate solution was added to each well of the plate that was then incubated for 20 minutes in the dark at room temperature. The reaction was terminated by addition of 125 μl 0.2 M H2SO4 to each well. The absorbance was measured at 450 nm using a microtitre plate reader. In order to determine the specificity of the competitive ELISAs, standard solutions of a range of structurally similar compounds were prepared in TBST. Using calibration curves generated from these compounds (0-40 ng/ml), the cross-reactivity was determined.

[7] = system: Randox mephedrone/methcathinone kit; conditions: compared to 100% for (±)-mephedrone, Swortwood et al 2013, Table 7; cited from earlier work
Randox MDPV kit = conditions: compared to 100% for (±)-MDPV, Swortwood et al 2013, Table 7; cited from earlier work

Row | Compound | cross-reactivity [1] | cross-reactivity [2] | cross-reactivity [3] | % Cross-Reactivity [4] [%] | % Cross-Reactivity [5] [%] | % Cross reactivity [6] [%] | other results
1 | COc1cc(CCN)c(OC)cc1I [Hapten 2C-I, 1-(2,5-dimethoxy-4-iodophenyl)ethan-2-amine] | none | does not show cross-reactivity | 28.6% |  |  |  | 
2 | CCc1cc(OC)c(CCN)cc1OC [Hapten 2C-E, 1-(2,5-dimethoxy-4-ethylphenyl)ethan-2-amine] |  |  |  | <1.0 | 178.8 |  | 
3 | COc1ccc(OC)c(CCN)c1 [Hapten 2C-H] | 3.1% | does not show cross-reactivity | none |  |  |  | 
4 | CCCc1cc(OC)c(CCN)cc1OC [Hapten 2C-P, 1-(2,5-dimethoxy-4-propylphenyl)ethan-2-amine] |  |  |  | <1.0 | 276.8 |  | 
5 | CC(N)Cc1c2ccoc2c(Br)c2ccoc12 (centres unmarked) [Bromo DragonFly (HCl), 1-(4-Bromofuro[2,3-f][1]benzofuran-8-yl)propan-2-amine] |  |  |  |  |  | 96 | 
6 | COc1cc(OC)c(OC)cc1CC(C)N (centres unmarked) [TMA, 2,4,5-trimethoxyamphetamine] |  |  |  | 9.8 |  | 5 | 
7 | COc1cc(SC(C)C)c(OC)cc1CCN [Hapten 2C-T-4] | 2.2% | does not show cross-reactivity | none |  |  |  | 
8 | COc1cc(CCN)c(OC)cc1C#N [Hapten 2C-CN, 1-(4-cyano-2,5-dimethoxyphenyl)ethan-2-amine] |  |  |  | <1.0 | 66.8 |  | 
9 | NCCc1ccccc1 [(+)-Phenethylamine] |  |  |  | <1.0 | <1.0 |  | binding of the antibody described in Table 2 ([4]; summary in words): not; binding of the antibody described in Table 4 ([5]; summary in words): not
10 | CNC(C)C(=O)c1ccc(C)cc1 (racemic) [(±)-mephedrone, mephedrone] |  |  |  |  |  |  | cross-reactivity [7]: 100%
11 | COc1cc(CC(C)N)c(OC)cc1I.Cl (centres unmarked) [DOI HCl] |  |  |  |  |  | 73 | 
12 | COc1cc(CC(C)N)c(OC)cc1Br (racemic) [DOB, 1-(4-bromo-2,5-dimethoxyphenyl)propan-2-amine] | 8.5% | does not show cross-reactivity | 39.1% | 100.0 | <1.0 | 100 | % B/Bo ([4]; DOB 0.625 ng/ml): 64.5%; % B/Bo ([4]; DOB 1.25 ng/ml): 58.1%; % B/Bo ([4]; DOB 2.5 ng/ml): 46.3%; % B/Bo ([4]; DOB 5 ng/ml): 34.6%; % B/Bo ([4]; DOB 10 ng/ml): 27.5%; % B/Bo ([4]; DOB 20 ng/ml): 17.5%; % B/Bo ([4]; DOB 40 ng/ml): 11.5%; IC50 ([6]; DO antibody 2, competitive ELISA): IC50 - 0.437 ng/mL
13 | CCc1cc(OC)c(CC(C)N)cc1OC (centres unmarked) [DOET] | 4.8% | does not show cross-reactivity | 18.8% |  |  | 50 | 
14 | COc1cc(CCN)c(OC)cc1Cl [Hapten 2C-C, 1-(4-chloro-2,5-dimethoxyphenyl)ethan-2-amine] |  |  |  | <1.0 | 148.6 |  | 
15 | COc1cc([N+](=O)[O-])c(OC)cc1CC(C)N (centres unmarked) [DON, 1-(2,5-dimethoxy-4-nitrophenyl)propan-2-amine] |  |  |  | 43.1 |  | 57 | 
16 | CCCC(C(=O)c1ccc2c(c1)OCO2)N1CCCC1 (racemic) [(±)-MDPV] |  |  |  |  |  |  | cross-reactivity (Randox MDPV kit): 100%
17 | CC(N)Cc1ccccc1 (centres unmarked) [Amphetamine] |  |  |  | <1.0 |  |  | 
18 | CN[C@@H](C)Cc1ccccc1 [Methamphetamine] |  |  |  | <1.0 |  |  | 
19 | COc1cc(CCN)c(OC)cc1Br [Hapten 2C-B, 1-(4-bromo-2,5-dimethoxyphenyl)ethan-2-amine] | 3.0% | does not show cross-reactivity | 36.0% | <1.0 | 100.0 |  | % B/Bo ([5]; 2C-B 1.25 ng/ml): 86.8%; % B/Bo ([5]; 2C-B 2.5 ng/ml): 79.2%; % B/Bo ([5]; 2C-B 5 ng/ml): 69.2%; % B/Bo ([5]; 2C-B 10 ng/ml): 59.5%; % B/Bo ([5]; 2C-B 20 ng/ml): 53.5%; % B/Bo ([5]; 2C-B 40 ng/ml): 44.6%; % B/Bo ([5]; 2C-B 80 ng/ml): 38.1%; IC50 (standard concentration which produces 50% inhibition of maximal signal) [5]: 0.024618 µg/mL; IC50 (standard concentration which produces 50% inhibition of maximal signal) ([5]; listed as 2CB): is 24.6 ng/ml).
20 | COc1cc(CC(C)N)c(OC)cc1C (racemic) [DOM, 1-(2,5-dimethoxy-4-methylphenyl)propan-2-amine] | 3.9% | does not show cross-reactivity | 23.2% | 112.7 |  | 49 | 
21 | COc1cc(CCN)c(OC)cc1C [Hapten 2C-D, 1-(2,5-dimethoxy4-methylphenyl)ethan-2-amine] |  |  |  | <1.0 | 308.3 |  | 
22 | COc1cc(CC(C)N)c(OC)cc1Cl (centres unmarked) [DOC, 4-chloro-2,5dimethoxyamphetamine] |  |  |  |  |  | 47 | 
